Test results from patent publication US6087121A, “Chemiluminescent detection of heme proteins in biological samples” (Mayo Foundation for Medical Education and Research, priority 1999, dated 2000).
“Also recorded” adds a separate entry of the source. Read-outs that look alike come from different tables or passages of the source.

How the values were obtained:
MPO [1] = target: T1, MPO (Homo sapiens, UniProt P05164); assay: Drug interferences with MPO (PS-1 assay in urine); type: biochemical; conditions: for inhibition at 0.001 µg/mL: 1 ng/mL
T1 sequence (P05164 49-745): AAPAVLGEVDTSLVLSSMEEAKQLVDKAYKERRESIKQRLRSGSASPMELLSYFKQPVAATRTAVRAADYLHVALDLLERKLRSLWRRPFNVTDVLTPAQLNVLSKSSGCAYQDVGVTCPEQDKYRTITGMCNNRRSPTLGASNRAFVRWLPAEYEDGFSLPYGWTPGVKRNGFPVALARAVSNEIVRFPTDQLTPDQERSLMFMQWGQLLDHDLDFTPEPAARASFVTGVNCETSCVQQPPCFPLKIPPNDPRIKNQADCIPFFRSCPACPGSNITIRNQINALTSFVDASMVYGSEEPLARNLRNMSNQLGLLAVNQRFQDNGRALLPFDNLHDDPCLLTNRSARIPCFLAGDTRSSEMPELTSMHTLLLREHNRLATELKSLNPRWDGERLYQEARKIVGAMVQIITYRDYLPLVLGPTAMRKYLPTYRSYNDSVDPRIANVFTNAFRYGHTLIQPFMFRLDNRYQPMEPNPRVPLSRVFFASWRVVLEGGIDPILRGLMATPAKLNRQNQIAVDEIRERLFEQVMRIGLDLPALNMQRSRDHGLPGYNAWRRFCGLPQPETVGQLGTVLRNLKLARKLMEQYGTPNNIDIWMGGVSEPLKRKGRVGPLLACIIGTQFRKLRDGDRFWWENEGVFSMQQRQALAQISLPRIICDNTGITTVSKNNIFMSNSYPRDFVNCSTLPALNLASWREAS
Protocol: (§1) Urine samples were diluted 1:4 into distilled water to minimize inhibitory effects observed with hyperosmolal urines. Two μL of diluted urine were added to 12×75 mm polystyrene test tube containing 50 μL of the PS-1 solution. The tubes were incubated at 37° C. for 5 minutes. MPO activity was determined by chemiluminescence emission using a Turner TD-20e luminometer maintained at 37° C. Leukocyte counting was performed manually by using a hemacytometer chamber (Kova Glasstic slide, Hycor, Irvine, Calif.) on each urine sample to determine the number of cells/mL.
Several possible interfering substances were added to urine and tested for inhibitory effects. Several common medications were also tested for potential inhibitory effects.

Hb [2] = assay: S/N ratios of different chemiluminescent substrates with Hb; type: biochemical, human; conditions: signal integrated over first five seconds
Protocol: (§2) Centricon ultrafiltration filters were obtained from Amicon (Daven, Mass.). Polystyrene tubes (5.0 mL volume, 75×12 mm) used for the assay were manufactured by Sarstedt (Arlington Heights, Ill.). The chemiluminescent substrate, 7-dimethylamino-naphthalene-1,2-dicarbonic acid-hydrazide (7-DNH) was purchased from Boehringer Mannheim (Indianapolis, Ind.). PS-1 acridan substrate (solution A and solution B) was obtained from Lumigen Inc. (Southfield, Mich.). […] Tween-20 and Sodium Chloride were purchased from Fisher Scientific (Fair Lawn, N.J.). General laboratory chemicals such as, boric acid, sodium acetate, Trizma base, HEPES, hydrogen peroxide (H2 O2) solution (30.0%), human hemoglobin, catalase, 6-amino-2,3-dihydro-1,4-phthallazinedione (4-aminophthalhydrazide), N-(4-Aminobutyl)-N-ethyl-isoluminol, Triton X-100, (3-[3-cholamidopropyl)dimethylammonio]-1-propanesulfonate) (CHAPS), hydrogen disulfite, methimazole, ofloxacin, ascorbic acid, ammonium chloride, EDTA, Hb, bilirubin, and lactoperoxidase (LPO) were purchased from Sigma Chemical Company (St. Louis, Mo.). Human heart myoglobin and myeloperoxidase were obtained from Calbiochem (La Jolla, Calif.) Thyroid peroxidase (TPO) was purchased from O.E.M. Concepts, Inc. (Toms River, N.J.). Eosinophil peroxidase was provided by Dr. Greipp (Mayo Clinic). Fresh EDTA anticoagulated blood was collected from donors showing no signs of sickness and washed with physiological saline to isolate RBC.
(§3) Fresh urine specimens were obtained in routine commercial collection vessels. The specimens were, either, analyzed immediately or stored at 4° C. until analysis. The urine samples were prepared for analysis by adding CTAC to produce a 0.1% solution, unless otherwise noted, in order to lyse the erythrocytes, thereby releasing hemoglobin. The assays were performed in a 75×12 mm polystyrene tube. The assay solutions were prepared by adding to each tube 294 μL of high ionic strength buffer, 5.0 μL of the prepared urine samples or standards, and […] of substrate (0.4 mM solution of 7-DNH), unless otherwise noted. […] The standard curve was obtained by plotting chemiluminescence emission in Relative Light Units (RLU) versus Hb concentration (μg/mL) or number of RBCs (#RBC/high power field (hpf)). Cell counts were determined with the Yellow Iris® instrument and confirmed by a manual hemocytometer count.
The substrate (7-DNH) and the ultrafiltered urine were prepared as described above. The kinetics of chemiluminescence was determined by monitoring the chemiluminescence signal over a 20 second time period following addition of the substrate (7-DNH) to ultrafiltered urine. Measurements were performed either in the presence or absence of Hb. Experiments performed in the absence of Hb provide background measurements in relative light units (RLU).

Mb = assay: S/N ratios of different chemiluminescent substrates with Mb; type: biochemical, human; conditions: signal integrated over first five seconds
Protocol: as §2, §3
The substrate (7-DNH) and the ultrafiltered urine were prepared as described above. The kinetics of chemiluminescence was determined by monitoring the chemiluminescence signal over a 20 second time period following addition of the substrate (7-DNH) to ultrafiltered urine. Measurements were performed either in the presence or absence of Hb. […]

Hb [3] = assay: Effects of detergents on chemiluminescence emission in Hb assay; type: biochemical, human
Protocol: Increasing concentrations of Hb were assayed with equal concentrations of different detergents to assess the effectiveness of the detergents at enhancing chemiluminescence emission. The effectiveness of the detergents was also compared at different time periods and varying concentrations. The ultrafiltered urine was assumed to contain neither Hb nor Mb and was used as the blank to assess background chemiluminescence emission with the substrate.

Hb [4] = assay: Interference studies in Hb assay (7-DNH chemiluminescence); type: biochemical, human; conditions: for Level of Interference: level producing a signal equivalent to 3 RBC per high power field, fixed Hb concentration; for Level of Interference (in words): highest conc: ascorbic acid 10, bilirubin 10, Cu++/Mn++ 40, sodium azide 500 μg/mL, uric acid 1 mg/mL
Protocol: Numerous potential interfering substances, which either enhance or quench the signal generated by cyclic hydrazides, were evaluated. The effects of these potentially interfering substances on light emission was investigated at varying concentrations of the interfering composition. Assays were performed using serial dilutions of the potential interfering compositions in ultrafiltered urine at a fixed concentration of Hb. Comparisons of chemiluminescence emission were made between a reference solution (Hb in ultrafiltered urine) without added interfering compositions and solutions with added interferant.
Generally, the value of 3 RBC per high power field is the normal cutoff point.
Bilirubin and uric acid were examined as a possible negative interfering compositions because of their chemical structure which may quench energy emitted.

MPO [5] = target: T1, MPO; assay: Effects of potential interfering substances in WBC (MPO, PS-1) assay; type: biochemical; conditions: highest tested: uric acid 1 mg/mL, ascorbic acid 100 μg/mL, bilirubin 50 μg/mL, trolox 1 mg/mL
Protocol: as §1
Several possible interfering substances were added to urine and tested for inhibitory effects. Several common medications were also tested for potential inhibitory effects. […] Hb at concentrations of >10 μg/mL and Mb at concentrations >2 μg/mL were detected by the PS-1 substrate as the chemiluminescence emission was above the normal urine background. Samples grossly populated with bacteria caused slight inhibition of the MPO activity. Urine samples may contain many epithelial cells, casts, crystals, and numerous artifacts but none of these appear to interfere with the chemiluminescence emission from MPO.

C[C@]12C=CC(=O)C=C1CC[C@@H]1[C@@H]2[C@@H](O)C[C@@]2(C)[C@H]1CC[C@]2(O)C(=O)CO [Prednisolone]
inhibition at 100 µg/mL (MPO [1]; read-out: % Inhibition of MPO): 13%

Cn1c(=O)c2[nH]cnc2n(C)c1=O [Aminophyllin]
% Inhibition of MPO (MPO [1]; 100 μg/mL): 4%

C[C@]12CC[C@@H]3c4ccc(O)cc4CC[C@H]3[C@@H]1C[C@@H](O)[C@@H]2O [Estriol]
inhibition at 0.001 µg/mL (MPO [1]): 15%

CCN(CCCCN)c1ccc2c(=O)[nH][nH]c(=O)c2c1 [ABEI, N-(4-Aminobutyl)-N-ethyl-isoluminol]
S/N for Hb (Hb [2]): 3
S/N for Mb (Mb): 6

CCCCCCCCCCCCCCCC[N+](C)(C)C.[Cl-] [CTAC, cetyltrimethyl-ammonium chloride]
enhancement of chemiluminescence signal (Hb [3]; 7-DNH, various Hb concentrations): highest chemiluminescence signal
optimal concentration for enhancement of signal (Hb [3]; dose-dependent enhancement, FIG. 4B): 0.1%

Superoxide dismutase
Level of Interference (Hb [4]): > 125 µg/mL

O=C1O[C@H]([C@@H](O)CO)C(O)=C1O [Ascorbic Acid, ascorbic acid]
Level of Interference (in words) (Hb [4]): None
Level of Interference (in words) (Hb [4]; listed as ascorbic acid): did not interfere; also recorded: did not have an inhibitory effect on the reaction
Interference (in words) (MPO [5]): None
Interference (in words) (MPO [5]; listed as ascorbic acid): did not affect assay performance

C=CC1=C(C)/C(=C/c2[nH]c(Cc3[nH]c(/C=C4\NC(=O)C(C)=C4C=C)c(C)c3CCC(=O)O)c(CCC(=O)O)c2C)NC1=O [Bilirubin, bilirubin]
Level of Interference (in words) (Hb [4]): None
Level of Interference (in words) (Hb [4]; listed as bilirubin): did not interfere
Interference (in words) (MPO [5]): None
Interference (in words) (MPO [5]; listed as bilirubin): did not affect assay performance

Catalase
Level of Interference (in words) (Hb [4]): only interfere at very high concentrations
Level of Interference (Hb [4]): > 7.8 µg/mL

Cc1c(C)c2c(c(C)c1O)CCC(C)(C(=O)O)O2 (stereo not shown) [Trolox]
Interference (in words) (MPO [5]): None
Interference (in words) (MPO [5]; listed as trolox): did not affect assay performance

Nc1ccc2c(=O)[nH][nH]c(=O)c2c1 [Isoluminol, 6-amino-2,3-dihydro-1,4-phthallazinedione]
S/N for Hb (Hb [2]): 3
S/N for Mb (Mb): 5

C[C@]12CC[C@@H]3c4ccc(O)cc4CC[C@H]3[C@@H]1CC[C@@H]2O [Estradiol]
inhibition at 0.001 µg/mL (MPO [1]): 20%

Eosinophil peroxidase: Eosinophil peroxidase was provided by Dr. Greipp (Mayo Clinic)
Level of Interference (in words) (Hb [4]): only interfere at very high concentrations
Level of Interference (Hb [4]): > 0.007 µg/mL

COc1ccc2cc([C@H](C)C(=O)O)ccc2c1 [Naprosyn]
inhibition at 800 mg/day (MPO [1]; read-out: % Inhibition of MPO): 5%

Nc1cccc2c(=O)[nH][nH]c(=O)c12 [Luminol]
S/N for Hb (Hb [2]): 89
S/N for Mb (Mb): 73

O=c1[nH]c(=O)c2[nH]c(=O)[nH]c2[nH]1 [Uric Acid, uric acid]
Level of Interference (in words) (Hb [4]): None
Level of Interference (in words) (Hb [4]; listed as Uric acid): did not interfere
Interference (in words) (MPO [5]): None
Interference (in words) (MPO [5]; listed as uric acid): did not affect assay performance

[N-]=[N+]=[N-] [Sodium Azide, sodium azide]
Level of Interference (in words) (Hb [4]): None
Level of Interference (in words) (Hb [4]; listed as sodium azide): did not interfere

CC(C(=O)O)c1cccc(C(=O)c2ccccc2)c1 (stereo not shown) [Ketoprofyn]
inhibition at 100 mg/day (MPO [1]; read-out: % Inhibition of MPO): 10%

CN(C)CCC=C1c2ccccc2CCc2ccccc21 [Amitriptylene]
inhibition at 100 µg/mL (MPO [1]; 100 μg/mL, read-out: % Inhibition of MPO): 75%

Cn1c(=O)c2[nH]cnc2n(C)c1=O [Theophyllin]
% Inhibition of MPO (MPO [1]; 100 μg/mL): 11%
